The record followed here is PubChem BioAssay (NCI).

Some test systems named below: RXF-631 renal; DMS 114 small cell lung; SNB-78 CNS; HOP-18 NSCLC; DMS 273 small cell lung.
What all share (test): NCI tumour cell line growth inhibition, 48 h

SMILES strings stand for the structures.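 Grown in 96-well plates, cells were treated for 48 hours with each compound at five concentrations. Insufficient inhibition: endpoint recorded as highest concentration tested. TGI: concentration producing complete growth inhibition.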

With `O=C1O[C@@H](c2ccccc2)C[C@@H]1CN1CCOCC1`, the TGI with RXF-631 renal, in the test with DMS 114 small cell lung and in the test with SNB-78 CNS was above 100 µM throughout.

Turning to `C[N+](C)(C)CC(=O)N/N=c1\cc(C(=O)Nc2ccc(N=O)cc2C#N)oc2cc(O)ccc12`, the TGI in the test on HOP-18 NSCLC, in the test on RXF-631 renal, in the test with DMS 114 small cell lung, with DMS 273 small cell lung and in the test on SNB-78 CNS was above 100 µM each time.

Turning to `O=C1NC(c2ccc(O)cc2)C2CCC1C2` (stereo not given), the TGI in the test on DMS 114 small cell lung and in the test with SNB-78 CNS was above 100 µM throughout.

With `Cc1c(Cl)cccc1NC(=O)C(=O)C1C(=O)CC(C)(C)CC1=O`, the TGI in the test with HOP-18 NSCLC, in the test with RXF-631 renal, in the test on DMS 114 small cell lung, in the test on DMS 273 small cell lung and with SNB-78 CNS was above 100 µM in each case.

For the compound `O=C(/C=C/c1ccccc1)/C=C/c1ccccc1O`, the TGI in the test on HOP-18 NSCLC is 1.76 µM; in the test with DMS 114 small cell lung it was 35.3 µM; in the test on SNB-78 CNS, above 100 µM.

With `COc1ccc(C2C(Cl)C(=O)N2NC(=O)c2ccc(NC(C)=O)cc2)cc1` (stereo not given), the TGI in the test with DMS 273 small cell lung and in the test with SNB-78 CNS was above 100 µM in each case.

Consider `Cc1cc(=O)cc2sc3c(C)cccc3nc1-2`, for which the TGI with HOP-18 NSCLC, in the test with RXF-631 renal, in the test on DMS 273 small cell lung and with SNB-78 CNS was above 100 µM each time.

In the case of `Cc1ccccc1C(C#N)C(=O)C(=O)Nc1nc([N+](=O)[O-])cs1` (stereo not given), the TGI with HOP-18 NSCLC, with RXF-631 renal, with DMS 114 small cell lung and with SNB-78 CNS was above 100 µM in each case.

With `CCSc1nnc(CSc2nc(-c3ccccc3)c(-c3ccccc3)[nH]2)n1-c1ccccc1`, the TGI is 30.4 µM with HOP-18 NSCLC; 63.3 µM in the test on RXF-631 renal; 39.1 µM in the test with DMS 114 small cell lung; 66.3 µM in the test with DMS 273 small cell lung; above 100 µM with SNB-78 CNS.

Take `COc1ccc(/C(=C/n2ccnc2)C(=O)c2ccc(OC)c(OC)c2)cc1`: the TGI in the test on DMS 114 small cell lung and with DMS 273 small cell lung was above 100 µM in each case.

On to `COC1O[C@H]2CCN(C(=O)OCc3ccccc3)[C@H]2[C@H]1OCc1ccccc1` (stereo not given in full), for which the TGI in the test with HOP-18 NSCLC is above 100 µM; with DMS 114 small cell lung, above 86.2 µM; in the test on DMS 273 small cell lung it was above 100 µM; with SNB-78 CNS, above 100 µM.

In the case of `CCOC(=O)C(OCC1CC=CCC1)Sc1ccccc1` (stereo not given), the TGI in the test with HOP-18 NSCLC, with DMS 114 small cell lung, in the test with DMS 273 small cell lung and in the test with SNB-78 CNS was above 100 µM throughout.

In the case of `COC(=O)c1cc(CC(C)C)c2c(c1)[nH]c1ccccc12`, the TGI with DMS 114 small cell lung and in the test with DMS 273 small cell lung was above 100 µM throughout.

In the case of `CC(C)CC(N)C(=O)OCN1C(=O)C2C3C=CC(C2C1=O)C1C2C(=O)N(COC(=O)C(N)CC(C)C)C(=O)C2C31` (stereo not given), the TGI in the test on HOP-18 NSCLC, in the test with RXF-631 renal, in the test with DMS 114 small cell lung, in the test on DMS 273 small cell lung and in the test with SNB-78 CNS was above 100 µM in each case.

As for `COC(=O)C(C#N)=C1c2ccccc2Oc2ccccc21`, the TGI in the test with DMS 114 small cell lung, in the test with DMS 273 small cell lung and in the test on SNB-78 CNS was above 100 µM each time.

Consider `CC(C)C(Sc1nc(-c2ccccc2)c(-c2ccccc2)[nH]1)C(=O)NNC(=S)Nc1ccccc1` (stereo not given), for which the TGI in the test with DMS 273 small cell lung was determined as 34.8 µM; in the test on SNB-78 CNS, 79.6 µM.
